Data set [1] in a line: Water solubility of the solvent (method based on CIPAC MT157.1 and OECD 105). The class given is physicochemical. The settings on record: solvent in water, visual assessment of undissolved solvent. The method, then: The water solubility of the solvent was determined according to a method based on CIPAC MT157.1 and OECD 105 via the visual assessment of undissolved solvent in water after vigorous mixing and standing. Herein, various amounts of solvent and water were mixed with vigorous shaking in a glass-stoppered graduated cylinder or separating funnel, followed by standing for at least 30 min to enable separation. […] This method can be repeated with various amounts of solvent and water to enable the determination of the water-solubility of the solvent.

The subject of another data set is Soya plants. The data set is described as follows: Phytotoxicity determination on soya. Particulars: 200 L/ha of 1% w/w emulsion (EC 90% w/w solvent, 10% w/w emulsifier), after 14 days. The data set is classed as in vivo. As to the method:
Soya plants grown under standard greenhouse conditions in the growth stage 13 were treated with aqueous emulsions in a spray cabin. The resulting plant spray dosage represented an application rate of 200 L/ha of 1% w/w emulsion, corresponding to the application of 2 L/ha of the emulsifiable concentrate. […] The experimental period lasted 14 days, during which time the Soya plants were given optimum watering, nutrients, and light.
An assessment of 1 to 10% phytotoxicity is the limit of acceptable plant damage by farmers.

As for `COc1ccc(C=O)cc1` [4-anisaldehyde], in data set [1], the water solubility was determined as 0.20 % w/w. In addition, the “phytotoxicity (visual, scale 0% to 100%)” value in the data set with Soya plants came out at 0%.
As to `CCCCC(CC)COC(=O)C(C)O` (stereo not shown) [2-Ethyl hexyl lactate, 2-Ethylhexyl Lactate], the “phytotoxicity (visual, scale 0% to 100%)” value in the data set on Soya plants is 30%.
On to `CCCCCCCCCC(=O)N(C)C` [Dimethyl decanamide, dimethyl decanamide], for which the “phytotoxicity (visual, scale 0% to 100%)” value in the data set with Soya plants came to 50%.

Source of the values: patent US20260256133A1, “AN EMULSIFIABLE CONCENTRATE HAVING A (SUBSTITUTED) BENZALDEHYDE-BASED SOLVENT SYSTEM” (BASF SE, priority 2022, published 2026).
